# Experimental data from patent US20150335558A1, “NERVE GROWTH INHIBITOR, CUTANEOUS-SENSORY-IRRITATION INHIBITOR, AND MARKER FOR CUTANEOUS-SENSORY-IRRITATION DETECTION” (HOYU CO., LTD., priority 2012, published 2015).
# How the values were obtained:
# [1] = test system: mast cell deficient mice (WBB6F1-W/W^V) and normal control mice (WBB6F1-+/+); experiment: Scratch bouts of mast cell deficient and normal control mice after 10% SDS application (Sample Experiment 1-2); type: in vivo, mouse; conditions: both mast cell deficient and normal control mice, 10% SDS aqueous solution 50 μL single application; no significant difference between both mice
# Experimental: The present Sample Experiment was conducted using mast cell deficient mice and normal control mice, and SDS was used as a stimulating substance to analyze the scratch bouts of mice. Further, the amount of histamine in the skin of each mouse was assessed after SDS had been applied. Male mast cell deficient mice at ages of 7 to 8 weeks (WBB6F1-W/W^V mouse), purchased from Japan SLC, and normal control mice that are wild mice at ages of 7 to 8 weeks (WBB6F1-+/+mouse) were used. The mice were given solid feed under free water supply and subjected to preliminary rearing for 7 days or longer under a constant temperature/constant humidity environment with a temperature of 22±2° C., and a humidity of 55±10% before they were used in the test. The mice for use were used in the test at least 3 days after shearing/depilating the rostral back of each mouse. A 10% aqueous solution composed of SDS dissolved in distilled water was applied a single time at 50 μL as a stimulating substance against the skin to the sheared/depilated rostral back of the mice mentioned above. If the surfactant solution had turned hard before application, it was heated and dissolved in a hot water bath of 37° C. before use. Distilled water was applied to the solvent control group (Vehicle). […]
# [2] = test system: histamine in mouse epidermis and dermis; experiment: Amount of histamine in skin of mast cell deficient and normal control mice after SDS (Sample Experiment 1-2); type: in vivo; conditions: Day 4, both mast cell deficient and normal control mice, SDS applied group vs solvent control
# Experimental: Meanwhile, skin was collected from each of the mast cell deficient mice and normal control mice in the 10% SDS aqueous solution application group mentioned above at Day 4 while the mice were under anesthesia after perfusion with a phosphate buffer solution (PBS) using the cardiac blood circulation system (punched out with a biopsy punch in a circular shape of a diameter of 18 mm). The amounts of histamine in the collected skins were measured. In other words, each collected skin was immersed in PBS of 60° C. for 30 secs., then separated into the epidermis and the dermis. Subsequently, the amounts of histamine in the epidermis and the dermis were measured using the measurement kit (histamine enzyme immunoassay kit (Immunotech, Marseilles, France)). To measure the amount of histamine, tissues of both the epidermis and the dermis were pulverized to create tissue suspensions, which were subjected to centrifugation, then supernatants were collected to measure the amounts of histamine in the supernatants.
# [3] = test system: histamine in mouse epidermis and dermis; experiment: Amount of histamine in ICR mouse skin after SDS (Sample Experiment 1-3); type: in vivo; conditions: ICR mice, Day 4, 10% SDS application group vs solvent control
# Experimental: The present Sample Experiment was conducted using ICR mice, and SDS was used as a stimulating substance. After SDS was applied, the amount of histamine in the skin of each mouse was assessed, and so was the HDC expression amount in the skin of each mouse. The same ICR mice as used in Sample Experiment 1-1 was used. Treatments of the ICR mice, such as preliminary rearing, and the shearing/depilating of the rotal back, were performed similarly to Sample Experiment 1-1. A 10% aqueous solution obtained by dissolving SDS in distilled water was applied to the mouse rostal back as a stimulating substance against the skin similarly to Sample Experiment 1-1. Distilled water was applied to the solvent control group (Vehicle). Skin was collected by operations similar to that mentioned in “Amount of Histamine in Mouse Skin” in Sample Experiment 1-2 from each ICR mouse of the 10% SDS aqueous solution application group and the solvent control group mentioned above after 4 days had passed from application (Day 4). The collected skins were separated into the epidermis and the dermis, and the amounts of histamine in those skins were measured.
smiles,measurement,setting,value
"CCCCCCCCCCCCOS(=O)(=O)[O-].[Na+] [SDS, sodium dodecyl sulfate]",scratch bouts of mice (number in 60 mins.) after stimulating substance,[1],increased significantly with time
same,amount of histamine in mouse dermis,[2],barely increased
same,amount of histamine in mouse epidermis,[2],significantly high
same,amount of histamine in mouse dermis,[3],does not differ significantly
same,amount of histamine in mouse epidermis,[3],significantly higher
